From patent US11753408B2, “Compounds and method for blocking transmission of malarial parasite” (The United States of America, as represented by the …, priority 2016, dated 2023) come the findings set out here.

Structures are written as SMILES.

Data set [1] deals with Asexual parasites of P. falciparum strain 3D7. The experiment in a line: In vitro drug activity on asexual parasites (SYBR Green assay). The class given is cell-based, Plasmodium falciparum. The gist of the method:
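3D7 parasites at 0.5% parasitemia and 2% hematocrit were exposed to drugs (DMSO ≤0.5%) for 72 h under standard culture conditions, in duplicate. After freeze-thaw lysis, SYBR Green I lysis buffer was added for 30 min at room temperature, and fluorescence was read at 490/520 nm.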

The nature of data set [2]: Solubility at pH 7.4. The class given is physicochemical.
A short description of data set [3]: PAMPA permeability. It is filed as in vitro ADME. (In general: In PAMPA a lipid-coated filter parts donor from acceptor wells.)
In data set [4] the target is mTOR (Homo sapiens, UniProt P42345). The experiment in a line: mTOR activity (no method described). The class given is biochemical.
Data set [5] can be described thus: Microsomal stability (rat). The note with it: rat microsomes. It is filed as in vitro ADME.

In general, EC50 refers to the concentration needed to bring the measured effect to its halfway point. Read a low EC50 as a more potent agent. `COc1cc(C(=O)N2CCOCC2)ccc1-n1c(=O)ccc2cnc3ccc(-c4ccc(Cl)cc4)cc3c21` [Compound 199]: the EC50 in data set [1] is 109 nM. Besides, the “Sol @ pH 7.4” value in data set [2] was 1.4 ug/mL. The same compound had a PAMPA Permeability in data set [3] of 1440 ×10⁻⁶ cm/s. The compound further came in with a mTOR in data set [4] of 16.51 µM. Besides, the “Microsomal Stability (rat) T1/2” value in data set [5] came out at 5.6 min.
In the case of `CC(C)c1ccc(-c2ccc3ncc4ccc(=O)n(-c5ccc(C(=O)N6CCOCC6)cc5)c4c3c2)cc1` [Compound 201], in data set [1], the EC50 was found to be 1620 nM. In data set [2], the “Sol @ pH 7.4” value is below 1 ug/mL. Besides, the PAMPA Permeability in data set [3] stood at 13.8 ×10⁻⁶ cm/s. In data set [4], the mTOR came to 17.28 µM. The “Microsomal Stability (rat) T1/2” value in data set [5] is recorded as 12.6 min.
On the same counts, the results for `CN(C)CCOc1ccc(-c2ccc3ncc4ccc(=O)n(-c5ccc(C(=O)N6CCOCC6)cc5)c4c3c2)cc1` [Compound 202] are 120 nM, 57.8 ug/mL, 415 ×10⁻⁶ cm/s, 3.267 µM and above 30 min.
`O=C(NC1CC1)c1ccc(-n2c(=O)ccc3cnc4ccc(-c5ccc(F)c(O)c5)cc4c32)cc1` [Compound 203]: the EC50 in data set [1] was 17.2 nM. The “Sol @ pH 7.4” value in data set [2] is 1.2 ug/mL. In data set [3], this compound yielded a PAMPA Permeability of 750 ×10⁻⁶ cm/s. Also, in data set [4], the mTOR was 0.5128 µM. For the same compound, the “Microsomal Stability (rat) T1/2” value in data set [5] was 29.3 min.
For `O=C(NC1CC1)c1ccc(-n2c(=O)ccc3cnc4ccc(-c5ccc(Cl)c(O)c5)cc4c32)cc1` [Compound 204] the same measures were 14.3 nM, below 1 ug/mL, below 1 ×10⁻⁶ cm/s, 0.2571 µM and above 30 min.
For `O=C(NCCCN1CCCC1)c1ccc(-n2c(=O)ccc3cnc4ccc(-c5ccc(Cl)cc5)cc4c32)cc1` [Compound 206] the same measures were 48.9 nM, 44.1 ug/mL, 428 ×10⁻⁶ cm/s, 19.64 µM and 7.1 min.
As to `CC(N)c1ccc(-c2ccc3ncc4ccc(=O)n(-c5ccc(C(=O)N6CCOCC6)cc5)c4c3c2)cc1` (stereo not shown) [Compound 207], the response in data set [1] was half-maximal at 145 nM (EC50). The “Sol @ pH 7.4” value in data set [2] was found to be 58.1 ug/mL. The PAMPA Permeability in data set [3] was below 1 ×10⁻⁶ cm/s. The compound also yielded a mTOR in data set [4] of 0.1688 µM. In addition, in data set [5], the “Microsomal Stability (rat) T1/2” value is above 30 min.
For `CN(C)C(=O)c1ccc(-n2c(=O)ccc3c[n+]([O-])c4ccc(-c5ccc(Cl)cc5)cc4c32)cc1` [Compound 208] the same measures were 65.9 nM, 35.5 ug/mL, 248 ×10⁻⁶ cm/s, 21.75 µM and 13.2 min.
`CCCCNC(=O)c1ccc(-n2c(=O)ccc3cnc4ccc(-c5ccc(Cl)cc5)cc4c32)cc1` [Compound 209] registered an EC50 in data set [1] of 538 nM. Also, the “Sol @ pH 7.4” value in data set [2] is listed as below 1 ug/mL. For the same compound, the PAMPA Permeability in data set [3] was below 1 ×10⁻⁶ cm/s. The mTOR in data set [4] is 2.492 µM. Moreover, the “Microsomal Stability (rat) T1/2” value in data set [5] was found to be 4 min.
For `O=C(c1ccc(-n2c(=O)ccc3cnc4ccc(-c5cccc(CCN6CCCC6)c5)cc4c32)cc1)N1CCOCC1` [Compound 211] the same measures were 3880 nM, above 83 ug/mL, 227 ×10⁻⁶ cm/s, 43.09 µM and above 30 min.
For `CN(C)CCc1cccc(-c2ccc3ncc4ccc(=O)n(-c5ccc(C(=O)N6CCOCC6)cc5)c4c3c2)c1` [Compound 212] the same measures were 3890 nM, above 79 ug/mL, 189 ×10⁻⁶ cm/s, 15.8 µM and above 30 min.
